# Test results as given in patent publication US8609669B2, “Potassium channel modulators” (AbbVie Inc., priority 2010, dated 2013).
# Target: T1, KCNQ 2/3 channels (HEK293 cells stably expressing human KCNQ2 and KCNQ3 subunits) (Homo sapiens, UniProt O43525+O43526)
# T1 construct: expressed in transfected cells; host or cells: HEK293
# Test: KCNQ2/3 channel activation, thallium flux FLIPR assay (BTC-AM dye)
# Format: cell-based
# Details: for Emax: HEK293, maximum response relative to response of retigabine at 10 μM (set at 100%), read-out: Max. %; for EC50: HEK293 cells expressing human KCNQ2 and KCNQ3, FLIPR thallium flux
# Procedure: The following example describes the assay that can be used to identify compounds that activate KCNQ 2/3 channels.
# HEK293 cells stably expressing human KCNQ2 and KCNQ3 subunits were seeded in 96-well, black-walled, clear-bottomed, poly-D-lysine coated plates (BD Biosciences, Bedford, Mass.) at a density of 1×10^5 cells per well 24 hours before the assay. On the assay day, BTC-AM dye (Invitrogen, Carlsbad, Calif.) was loaded into the cells by replacing the cell culture medium with 100 μL/well of 4 μM dye in DPBS. Dye loading was allowed to proceed for 2 hours at room temperature and then cells were washed twice in 100 μL/well of assay buffer (in mM: 10 HEPES pH 7.3, 5 glucose, 140 Na-gluconate, 2.5 K-gluconate, 3.6 Ca-gluconate, 2 MgSO4, 0.1 Ouabain) to remove unloaded dye. Cells were incubated in 50 μL of assay buffer before loading onto a FLIPR system (Molecular Devices, Sunnyvale, Calif.). Various concentrations of compounds to be assayed were added to the cells in 50 μL of assay buffer and incubated for 4 minutes. The fluorescence signal was initiated by adding 100 μL of assay buffer containing 6 mM TlNO3 and 10 mM K2SO4. Fluors were excited using the 488-nm line of an argon laser and emission was filtered using a 540±30 nm bandpass filter. Fluorescent signals were recorded for 3 minutes. Responses over baseline values were plotted versus concentrations of test compounds to obtain an EC50 value. The maximum response for each test compound was determined relative to the response produced at 10 μM by retigabine. The maximum response of retigabine at 10 μM was set at 100%.
SMILES,Emax [%],EC50 [nM]
"CC(C)(C)/C=C/c1c(NC(=O)CC(C)(C)C)nn2cccnc12 [Example 144, N-{3-[(1E)-3,3-dimethylbut-1-en-1-yl]pyrazolo[1,5-a]pyrimidin-2-yl}-3,3-dimethylbutanamide]",174,100 to 500
"CC(C)(C)c1c(NC(=O)CCC2CCCC2)nn2cccnc12 [Example 105, N-(3-tert-butylpyrazolo[1,5-a]pyrimidin-2-yl)-3-cyclopentylpropanamide]",153,100 to 500
"O=C(CC1CC2CCC1C2)Nc1nn2cccnc2c1-c1ccc(Cl)cc1 (racemic) [Example 158, (±)-exo-2-bicyclo[2.2.1]hept-2-yl-N-[3-(4-chlorophenyl)pyrazolo[1,5-a]pyrimidin-2-yl]acetamide]",143,100 to 500
"CC(C)(C)c1c(NC(=O)/C=C/c2ccccc2)nn2cccnc12 [Example 136, (2E)-N-(3-tert-butylpyrazolo[1,5-a]pyrimidin-2-yl)-3-phenylacrylamide]",8,> 10000
"Cc1ccnc2c(CC(C)(C)C)c(NC(=O)CCC3CCCCC3)nn12 [Example 37, 3-cyclohexyl-N-[3-(2,2-dimethylpropyl)-7-methylpyrazolo[1,5-a]pyrimidin-2-yl]propanamide]",166,< 100
"CC(C)(C)c1c(NC(=O)CCC2CCCCC2)nn2cccnc12 [Example 132, N-(3-tert-butylpyrazolo[1,5-a]pyrimidin-2-yl)-3-cyclohexylpropanamide]",142,< 100
"O=C(NCC1CCOCC1)Nc1nn2cccnc2c1-c1ccc(Cl)cc1 [Example 103, 1-[3-(4-chlorophenyl)pyrazolo[1,5-a]pyrimidin-2-yl]-3-(tetrahydro-2H-pyran-4-ylmethyl)urea]",8,> 10000
"COc1cccc(CC(=O)Nc2nn3c(C)cc(C)nc3c2-c2ccc(F)c(C)c2)c1 [Example 32, N-[3-(4-fluoro-3-methylphenyl)-5,7-dimethylpyrazolo[1,5-a]pyrimidin-2-yl]-2-(3-methoxyphenyl)acetamide]",173,100 to 500
"COc1ccc(CC(=O)Nc2nn3cccnc3c2C(C)(C)C)cc1 [Example 155, N-(3-tert-butylpyrazolo[1,5-a]pyrimidin-2-yl)-2-(4-methoxyphenyl)acetamide]",116,1000 to 10000
"CCC1(c2c(NC(=O)CC3CC4CCC3C4)nn3cccnc23)CCCCC1 (racemic) [Example 146, (±)-exo-2-bicyclo[2.2.1]hept-2-yl-N-[3-(1-ethylcyclohexyl)pyrazolo[1,5-a]pyrimidin-2-yl]acetamide]",151,500 to 1000
"COc1ccc(CC(=O)Nc2nn3c(C)ccnc3c2-c2ccc(C(F)(F)F)cc2)cc1 [Example 80, 2-(4-methoxyphenyl)-N-{7-methyl-3-[4-(trifluoromethyl)phenyl]pyrazolo[1,5-a]pyrimidin-2-yl}acetamide]",59,> 10000
"Cc1cc(C)n2nc(NC(=O)CCC3CCCCC3)c(-c3ccc(Cl)c(C)c3)c2n1 [Example 48, N-[3-(4-chloro-3-methylphenyl)-5,7-dimethylpyrazolo[1,5-a]pyrimidin-2-yl]-3-cyclohexylpropanamide]",68,1000 to 10000
"CCC1(c2c(NC(=O)CCC3CCCC3)nn3cccnc23)CCCCC1 [Example 145, 3-cyclopentyl-N-[3-(1-ethylcyclohexyl)pyrazolo[1,5-a]pyrimidin-2-yl]propanamide]",182,100 to 500
"CC(C)c1c(NC(=O)CCC2CC2)nn2cccnc12 [Example 118, 3-cyclopropyl-N-(3-isopropylpyrazolo[1,5-a]pyrimidin-2-yl)propanamide]",14,> 10000
"CC(C)(C)Cc1c(NC(=O)CCc2ccccc2)nn2cccnc12 [Example 10, N-[3-(2,2-dimethylpropyl)pyrazolo[1,5-a]pyrimidin-2-yl]-3-phenylpropanamide]",156,1000 to 10000
"Cc1cc(C)n2nc(NC(=O)Cc3ccc(F)cc3)c(-c3ccccc3)c2n1 [Example 96, N-(5,7-dimethyl-3-phenylpyrazolo[1,5-a]pyrimidin-2-yl)-2-(4-fluorophenyl)acetamide]",206,100 to 500
"O=C(Cc1ccccn1)Nc1nn2cccnc2c1-c1ccc(Cl)cc1 [Example 100, N-[3-(4-chlorophenyl)pyrazolo[1,5-a]pyrimidin-2-yl]-2-(pyridin-2-yl)acetamide]",-1,> 10000
"Cc1ccnc2c(-c3ccc(OC(F)(F)F)cc3)c(NC(=O)CC(C)(C)c3ccccc3)nn12 [Example 159, 3-methyl-N-{7-methyl-3-[4-(trifluoromethoxy)phenyl]pyrazolo[1,5-a]pyrimidin-2-yl}-3-phenylbutanamide]",136,500 to 1000
"Cc1cc(C)n2nc(NC(=O)CCc3ccccc3)c(-c3cccc(F)c3)c2n1 [Example 85, N-[3-(3-fluorophenyl)-5,7-dimethylpyrazolo[1,5-a]pyrimidin-2-yl]-3-phenylpropanamide]",131,500 to 1000

# Results, then the compound that gave them:
Emax [%],EC50 [nM],SMILES
154,500 to 1000,"COc1cccc(CC(=O)Nc2nn3cc(C)cnc3c2-c2ccc(F)cc2)c1 [Example 26, N-[3-(4-fluorophenyl)-6-methylpyrazolo[1,5-a]pyrimidin-2-yl]-2-(3-methoxyphenyl)acetamide]"
141,< 100,"Cc1ccnc2c(Cc3ccc(F)cc3)c(NC(=O)CCC3CCCC3)nn12 [Example 71, 3-cyclopentyl-N-[3-(4-fluorobenzyl)-7-methylpyrazolo[1,5-a]pyrimidin-2-yl]propanamide]"
117,100 to 500,"Cc1cc(-c2c(NC(=O)CCC3CCCC3)nn3c(C)ccnc23)ccc1Cl [Example 46, N-[3-(4-chloro-3-methylphenyl)-7-methylpyrazolo[1,5-a]pyrimidin-2-yl]-3-cyclopentylpropanamide]"
133,< 100,"Cc1cnc2c(Cc3ccc(F)cc3)c(NC(=O)CCC3CCCCC3)nn2c1 [Example 77, 3-cyclohexyl-N-[3-(4-fluorobenzyl)-6-methylpyrazolo[1,5-a]pyrimidin-2-yl]propanamide]"
100,1000 to 10000,"COc1ccc(CC(=O)Nc2nn3cc(C)cnc3c2-c2cccc(Cl)c2)cc1 [Example 50, N-[3-(3-chlorophenyl)-6-methylpyrazolo[1,5-a]pyrimidin-2-yl]-2-(4-methoxyphenyl)acetamide]"
65,500 to 1000,"O=C(CCC1CCCC1)Nc1nn2cccnc2c1-c1ccc(C(F)(F)F)c(F)c1 [Example 88, 3-cyclopentyl-N-{3-[3-fluoro-4-(trifluoromethyl)phenyl]pyrazolo[1,5-a]pyrimidin-2-yl}propanamide]"
143,< 100,"Cc1cc(C)n2nc(NC(=O)CC3CCCC3)c(-c3cccc(Cl)c3)c2n1 [Example 53, N-[3-(3-chlorophenyl)-5,7-dimethylpyrazolo[1,5-a]pyrimidin-2-yl]-2-cyclopentylacetamide]"
138,< 100,"Cc1cc(C)n2nc(NC(=O)CC3CCCCC3)c(-c3cccc(F)c3)c2n1 [Example 86, 2-cyclohexyl-N-[3-(3-fluorophenyl)-5,7-dimethylpyrazolo[1,5-a]pyrimidin-2-yl]acetamide]"
162,100 to 500,"Cc1cnc2c(-c3ccc(F)c(C)c3)c(NC(=O)CSC3CCCC3)nn2c1 [Example 143, 2-(cyclopentylthio)-N-[3-(4-fluoro-3-methylphenyl)-6-methylpyrazolo[1,5-a]pyrimidin-2-yl]acetamide]"
73,1000 to 10000,"Cc1cnc2c(-c3cccc(Cl)c3)c(NC(=O)CC(C)(C)C)nn2c1 [Example 51, N-[3-(3-chlorophenyl)-6-methylpyrazolo[1,5-a]pyrimidin-2-yl]-3,3-dimethylbutanamide]"
143,< 100,"Cc1cnc2c(Cc3ccc(F)cc3)c(NC(=O)CC3CCCC3)nn2c1 [Example 5, 2-cyclopentyl-N-(3-(4-fluorobenzyl)-6-methylpyrazolo[1,5-a]pyrimidin-2-yl)acetamide]"
21,> 10000,"Cc1cnc2c(-c3ccc(F)c(C)c3)c(NC(=O)C[S+]([O-])C3CCCC3)nn2c1 (stereo not drawn) [Example 173, 2-(cyclopentylsulfinyl)-N-[3-(4-fluoro-3-methylphenyl)-6-methylpyrazolo[1,5-a]pyrimidin-2-yl]acetamide]"
155,< 100,"Cc1cc(C)n2nc(NC(=O)CC3CCCCC3)c(-c3ccccc3)c2n1 [Example 94, 2-cyclohexyl-N-(5,7-dimethyl-3-phenylpyrazolo[1,5-a]pyrimidin-2-yl)acetamide]"
120,< 100,"Cc1cnc2c(-c3ccc(C)c(F)c3)c(NC(=O)CCC3CCCC3)nn2c1 [Example 20, 3-cyclopentyl-N-[3-(3-fluoro-4-methylphenyl)-6-methylpyrazolo[1,5-a]pyrimidin-2-yl]propanamide]"
